One test addresses T1, mOat3 (Mus musculus, UniProt O88909).
T1 construct: expressed in transfected cells; host or cells: HEK293
T1 sequence (O88909 1-537): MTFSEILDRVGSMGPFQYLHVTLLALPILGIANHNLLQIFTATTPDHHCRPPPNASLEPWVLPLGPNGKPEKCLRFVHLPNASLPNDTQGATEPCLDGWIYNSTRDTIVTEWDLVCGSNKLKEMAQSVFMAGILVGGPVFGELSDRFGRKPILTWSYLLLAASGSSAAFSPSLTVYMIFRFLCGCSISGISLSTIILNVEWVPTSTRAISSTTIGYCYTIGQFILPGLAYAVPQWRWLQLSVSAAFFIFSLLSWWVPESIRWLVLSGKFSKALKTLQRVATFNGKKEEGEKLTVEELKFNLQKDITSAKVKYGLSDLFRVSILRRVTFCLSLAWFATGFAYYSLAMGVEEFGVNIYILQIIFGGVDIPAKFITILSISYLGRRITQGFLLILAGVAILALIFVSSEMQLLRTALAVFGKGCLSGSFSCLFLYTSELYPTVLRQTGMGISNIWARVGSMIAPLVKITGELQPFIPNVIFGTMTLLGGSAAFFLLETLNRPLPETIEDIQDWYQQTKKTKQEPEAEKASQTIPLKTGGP
Put plainly: Two-point inhibition of mOat3-mediated ES uptake in transfected HEK293 cells. Conditions: ES 1 μM, 1 min. It counts as in vitro ADME. The protocol:
(§1) Well-characterized mOct1-, mOct2-, mOat1-, mOat2-, mOat3-, mMate1-, hOAT1-, hOAT3-, hOAT4-, hMRP2-, mMdr1a- and mMdr1b-transfected HEK293 cells and the respective vector-transfected control HEK293 cells were used.[42],[51],[52] All HEK293 cells (transporter-transfected and vector-transfected) were cultured in DMEM (Sigma, high glucose, 10% FBS, 1% penicillin (10,000 Units/mL)/streptomycin (10 mg/mL)) at 37°C under 5% CO2 in humidified atmosphere. The cells were routinely checked for the absence of mycoplasma infection. For the preparation of HEK293 cell monolayers, 24-well plates were pretreated with a poly-D-lysine hydrobromide solution (0.1 mg/mL). […]
(§2) For the uptake assay, the growth medium was aspirated, and each well was rinsed three times with 0.5 mL of incubation buffer (HBSS supplemented with 20 mM HEPES, pH 7.4) and incubated for 20 min at 37 °C. […] Cells were solubilized with 0.6 mL of 1N NaOH overnight and transferred into scintillation vials. ^3H and ^14C contents were measured after the addition of 2.5 mL of scintillator in a liquid scintillation counter.
(§3) The cellular protein amount was determined in parallel for each cell line (vector- and transporter-transfected) from six wells in a different 24-well reference plate using the Bradford method. […]
(§4) The inhibitory effect (I(%)) was calculated according to the formula: [drawing 5] […]

In a further test the target is T2, hOAT1 (Homo sapiens, UniProt Q4U2R8).
T2 construct: expressed in transfected cells; host or cells: HEK293
T2 sequence (Q4U2R8 1-563): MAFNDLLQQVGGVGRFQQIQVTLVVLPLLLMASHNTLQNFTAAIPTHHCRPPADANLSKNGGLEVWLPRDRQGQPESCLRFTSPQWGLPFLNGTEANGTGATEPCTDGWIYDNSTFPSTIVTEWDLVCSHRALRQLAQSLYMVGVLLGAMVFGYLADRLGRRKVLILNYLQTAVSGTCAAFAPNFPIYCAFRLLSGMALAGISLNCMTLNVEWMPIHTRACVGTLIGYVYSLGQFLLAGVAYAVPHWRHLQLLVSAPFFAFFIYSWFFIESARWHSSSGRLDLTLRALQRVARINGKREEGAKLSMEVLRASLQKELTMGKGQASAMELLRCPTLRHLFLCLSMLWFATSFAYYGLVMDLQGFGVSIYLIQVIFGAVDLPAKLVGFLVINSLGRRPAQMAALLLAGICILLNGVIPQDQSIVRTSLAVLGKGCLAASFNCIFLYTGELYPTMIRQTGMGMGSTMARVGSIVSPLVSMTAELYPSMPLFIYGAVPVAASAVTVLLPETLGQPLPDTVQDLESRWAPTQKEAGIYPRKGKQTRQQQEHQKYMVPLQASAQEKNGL
Put plainly: Two-point inhibition of hOAT1-mediated PAH uptake in transfected HEK293 cells. The test is classed as in vitro ADME. Conditions: PAH 10 μM, 1 min. Here is the method: as §1, §2, §3, §4

The values below come from paper PMC11249637, “Interaction of the Atypical Tetracyclines Chelocardin and Amidochelocardin with Renal Drug Transporters” (ACS Pharmacology & Translational Science, 2024).

Structures are written as SMILES.

Consider `Cc1ccc2c(C)c3c(c(O)c2c1O)C(=O)[C@@]1(O)C(=O)C(C(N)=O)=C(O)[C@@H](N)[C@H]1C3` [CDCHD, amidochelocardin], for which the “inhibitory effect on mOat3 (in words)” value on mOat3 (1 and 10 μM) was “no inhibitory effect”. At hOAT1 (1 and 10 μM), the “inhibitory effect on hOAT1 (in words)” value is recorded as “No inhibitory effect”.
With `CC(=O)C1=C(O)[C@@H](N)[C@H]2Cc3c(c(O)c4c(O)c(C)ccc4c3C)C(=O)[C@@]2(O)C1=O` [CHD, chelocardin], the inhibition at 10 µM on mOat3 (HEK293, at 10 μM, read-out: inhibitory effect on mOat3) was more than 50%; at hOAT1 (HEK293, at 10 μM, read-out: inhibitory effect on hOAT1) it was approximately 50%.
